Results as given in ChEMBL document CHEMBL3832032, “DailyMed|setid=2238e083-08f2-0aa8-59b7-16b6d68dbd48 | ALPRAZOLAM - alprazolam tablet|Apotex Corp”.

Assays:
Assay type in all cases: ADME, organism-based
[1] = system: Homo sapiens; assay: (§1) Pharmacokinetic parameters for Alprazolam evaluated after oral administration of alprazolam to subjects of different ages and health conditions.; set-up: route oral, dose Range 0.5 to 3; conditions: in vivo, po, dosed compound id 23, dosed compound name ALPRAZOLAM, gender male and female, tissue Plasma
[2] = as §1; set-up: route oral, dose Range 0.5 to 3; conditions: human, in vivo, dosed compound id 23, dosed compound name ALPRAZOLAM, gender male and female, tissue Plasma
[3] = system: Homo sapiens; assay: Evaluation of pharmacokinetic parameters for Alprazolam following single oral administration of Alprazolam, and following co-administration with multiple doses of carbamazepine.; conditions: in vivo, dose 0.8 mg, dosed compound id 23, dosed compound name ALPRAZOLAM, regimen Single dose, tissue Plasma
[4] = interact cpd dose 300 mg, inter cpd dos duration 10 days

With Cc1nnc2n1-c1ccc(Cl)cc1C(c1ccccc1)=NC2 [ALPRAZOLAM] the t1/2 ([1]; dose Range 0.5 to 3 mg) was 11.2 h, the t1/2 [1] was 16.3 hr [middle of 5 runs] and the Cmax ([2]; po) was 8 to 37 ng/mL. For the same compound, the Tmax ([2]; dose Range 0.5 to 3 mg, route oral) was 1 to 2 h, the CL [3, 4] was 2.13 mL/min/kg and the t1/2 [3, 4] was 7.7 h. It also gave a CL [3] of 0.9 mL/min/kg and a t1/2 [3] of 17.1 h.
